{"source": "paper PMC12930396", "about": "“Positive modulators of N-methyl-D-aspartate receptor: structure–activity relationship study on steroidal C-17 and C-20 oxime ethers” (RSC Advances, 2026)", "key": {"Stability in rat plasma": {"experiment": "Stability in rat plasma", "format": "in vitro ADME", "conditions": "rat plasma, 37 °C", "procedure": "Compounds were prepared as 1.6 mg mL^−1 stock solutions in methanol. Then, 20 µL of stock solution was added to 1000 µL of rat plasma (BioIVT, Cat. No. RAT00PLLH-0102307), maintained at 37 °C. Aliquots (50 µL) withdrawn at 0, 8, and 24 h were analyzed by HPLC. An aliquot of plasma was extracted with methanol (450 µL) containing an internal standard, and the solution was vortexed (20 s) and centrifuged at 13 500 rpm for 10 min. The supernatant was transferred to an autosampler vial, and 10 µL was injected into an LC-MS system. The samples were analyzed using an Agilent 6230 TOF LC/MS. Samples were separated on a Waters ACQUITY UPLC CSH Phenyl-Hexyl column (100 × 2.1, 130 Å, 1.7 µm) at a flow rate of 0.3 mL min^−1. […]. The temperature, the flow rate of the nitrogen drying gas, the pressure of the nitrogen nebulizing gas, and the flow rate of the sheath gas were set at 325 °C, 10 L min^−1, 40 psi, […], and 11 L min^−1, respectively. Results are represented as a percentage of the compound remaining in spiked plasma."}, "[1]": {"experiment": "Stability in primary rat hepatocytes", "procedure": "Primary rat hepatocytes were isolated from 12-weeks-old male Wistar rats (n = 3) by two-step collagenase liver perfusion. Tribromoethanol was used as an anesthetic agent at a dose of 250 mg kg^−1. […] Flow rate was maintained at 7 mL min^−1, and all solutions were kept at 37 °C. After in situ perfusion, the liver was excised, the liver capsule was opened, and cells were suspended in William's Medium E and filtered through a 70 µm membrane. Dead cells were removed by Percoll centrifugation (Percoll density: 1.06 g mL^−1, 50×g, 10 min, 20 °C) and additional centrifugation in William's Medium E (50×g, 5 min). Cells were subsequently diluted in William's Medium E, and their viability and cell suspension density were determined by Trypan Blue exclusion using a hemocytometer. […] Aliquots (50 µL) of the hepatocyte suspension were added to each test well of a 96-well plate, immediately followed by the addition of a 50 µL aliquot of the test compound or control solutions (final hepatocyte density – 0.5 × 10^6 mL^−1). […] At appropriate time-points, 40 µL aliquots were removed from the wells and placed in 1.1 mL microtubes containing 200 µL of methanol and used for LC-MS/MS analysis.\nElimination constant (kel), half-life (t1/2), and intrinsic clearance (CLint) were determined in plots of ln (percent remaining of parent compound) versus time, using linear regression analysis: k = −slope [drawing 6] [drawing 7]"}, "in vitro": {"experiment": "in vitro", "conditions": "pH 7.4", "procedure": "Permeability was quantified using permeability coefficients (Pe) and mass retention, the latter representing the proportion of compound retained in the membrane.\nPermeation experiments were conducted in polystyrene 96-well filter plates with PVDF membrane pre-coated with structured layers of phospholipids (Corning Gentest™) according to the manufacturer's instructions. Briefly, the plate was warmed to room temperature, and meanwhile, the solutions of the compounds were diluted from 10 mM DMSO stocks to TRIS–HCl buffer pH 7.4 to reach a 100 µM final concentration. The DMSO concentration in the samples was 1%. Then, 300 µL of these solutions were transferred into the donor (receiver) plate wells, and 200 µL of the (TRIS) buffer was added to the acceptor (filter) plate wells. The filter plate and receiver plate were assembled and incubated for 5 h on an orbital shaker (300 rpm). After this, the concentration of the tested substances in both the donor and acceptor compartments was determined with use of LC/MS. Liquid chromatography was performed using an ExionLC AD pump and autosampler from Sciex (Framingham, MA, USA). […] The mobile phase flow rate was 300 µL min^−1. The column Synergi Fusion-RP from Phenomenex (Torrance, CA, USA) was used and was kept at 40 °C during the analysis."}}, "note": "Where “and” joins values, the source holds several entries; their conditions need not be identical. Equal values may be shown once.", "data": [{"smiles": "CCON=C(C)C1CCC2C3CC=C4CC(OC(=O)CCCC(=O)O)CCC4(C)C3CCC12C", "note": "(stereo not drawn) [Compound 12, 20-Oxo-pregn-5-en-3β-yl hemiglutarate O-ethyloxime]", "values": [{"measurement": "Stability in rat plasma (% remaining) 8 h", "setting": "Stability in rat plasma; 8 h", "value": "85.6 ± 1.0 % remaining and 86 ± 1 % remaining"}, {"measurement": "Stability in rat plasma (% remaining) 24 h", "setting": "Stability in rat plasma; 24 h", "value": "59.6 ± 0.7 % remaining and 60 ± 1 % remaining"}, {"measurement": "Stability in primary rat hepatocytes Clint", "setting": "[1]; 3 µM, 0.5 × 10^6 cells mL^−1", "value": 19.1, "unit": "µL/min/mg"}, {"measurement": "half-life at 3 µM", "setting": "[1]; male, Wistar, rat, hepatocytes", "value": 1.21, "unit": "h"}, {"measurement": "Metabolic stability in rat hepatocytes", "setting": "[1]; rat, hepatocytes", "value": "moderate metabolic stability"}, {"measurement": "PAMPA permeability Retention (mass retention)", "setting": "in vitro; 5 h, 100 µM", "value": 97, "unit": "%"}, {"measurement": "Papp at 5 h, 100 µM", "setting": "in vitro; PAMPA", "value": 3.89, "unit": "×10⁻⁶ cm/s"}]}]}
